Results published in patent publication US5637770A (priority 1991, dated 1997).
≈ marks a conversion by molar mass, not a printed value. Read-outs that look alike come from different tables or passages of the source.

Tests used:
[1] = system: P388 murine leukemia cells; test: MTT cytotoxicity test on P388 murine leukemia cells (Table 1); type: cell-based; conditions: 3 days
Procedure: P388 murine leukemia cells were spread over a 96-well microplate, 2.5×10^3 cells per well. A sample to be tested was added after 24 hours. Cells were cultivated under the conditions of 5% CO2 at 37° C. for 3 days. 3-(4,5-Dimethylthiazol-2-yl)-2,5-diphenyl-2H-tetrazolium bromide (MTT) was added 4 hours after the addition of the sample. Upon the addition of […] of isopropyl alcohol containing 0.04N HCl the absorption at 540 nm was measured to determine IC50.

p388 (Mouse leukemia) = test: In vitro anti-proliferative activity, p388 (Table 2-2); type: cell-based; conditions: read-out: in vitro anti-proliferative activity (Gl50)
Procedure: (§1) In vitro anti-proliferative activities of the drugs against 4 human and 1 murine cell lines were measured by the MTT assay (see page 11 of the parent specification) after 3 days incubation, and expressed as the doses required to inhibit growth of 50% cells cultivated (Gl50, ng/ml).

QG90 (Lung) = test: In vitro anti-proliferative activity, QG90 (Table 2-2); type: cell-based; conditions: Homo sapiens, QG-90, 72 h, read-out: in vitro anti-proliferative activity (Gl50)
Procedure: as §1

HOC-21 (Ovary) = test: In vitro anti-proliferative activity, HOC-21 (Table 2-2); type: cell-based; conditions: Homo sapiens, read-out: in vitro anti-proliferative activity (Gl50)
Procedure: as §1

Acute toxicity in mice = type: in vivo; conditions: i.v., male BALB/c mice, survival on day 14, Probit method
Procedure: Groups of 5 male BALB/c mice were administered intravenously with several doses of drugs, and their survivals from death were recorded up to day 14. The 10 and 50% lethal doses (LD10 and LD50) were calculated form the survival rate on day 14 by the Probit method.

MKN28 (Stomach) = test: In vitro anti-proliferative activity, MKN28 (Table 2-2); type: cell-based; conditions: Homo sapiens, MKN-28, 72 h, read-out: in vitro anti-proliferative activity (Gl50)
Procedure: as §1

[2] = system: 4 human and 1 murine cell lines; test: In vitro anti-proliferative activity, mean over the cell lines (Table 2-2); type: cell-based; conditions: read-out: in vitro anti-proliferative activity (Gl50), MEAN
Procedure: as §1

Meth A fibrosarcoma = test: In vivo anti-tumor activity, Meth A fibrosarcoma in BALB/c mice (Table 3); conditions: i.v.; for Death Nos.: qd×4; for Tumor cell anti-proliferative activity: qd×4 (days 5-8), day 14
Procedure: In vivo anti-tumor activities of drugs were assayed with Meth A fibrosarcoma in BALB/c mice. Mice were treated intravenously with several doses of drugs on days 5, 6, 7, and 8 (qd×4) after hypodermic tumor implantation, and the weight of the tumor masses measured on day 14. The anti-tumor activities of drugs against the tumor were expressed as the relative tumor weight of controls (%).

MCF-7 (Breast) = test: In vitro anti-proliferative activity, MCF-7 (Table 2-2); type: cell-based; conditions: Homo sapiens, MCF7, 72 h, read-out: in vitro anti-proliferative activity (Gl50)
Procedure: as §1

[3] = system: P388 murine leukemia cells; test: MTT method, activity on p388 cells (Table 2-1); type: cell-based; conditions: Mus musculus
Procedure: (§2) See page 11 of the parent specification. In detail, p388 murine leukemia cells, MKN 28 (human stomach cancer cells), QG56 (human lung cancer cells) and HOC21 (human ovarian cancer cells) were provided. The cells were spread over a 96-well microplate, respectively, and a sample to be tested was added to each of them after 24 hours. Cells were cultivated under the conditions of 5% CO2 at 37° C. for 3 days.
(§3) 3-(4,5-Dimethylthiazol-2-yl)-2,5-diphenyl-2H-tetrazolium bromide (abbriviated as MTT) was added thereto 4 hours after the addition of the sample. Upon the addition of […] of isopropyl alcohol containing 0.04N HCl, the absorption at 540 nm was measured To determine IC50.

[4] = system: HOC21 (human ovarian cancer cells); test: MTT method, activity on HOC21 cells (Table 2-1); type: cell-based; conditions: HOC-21, 72 h
Procedure: as §2, §3

[5] = system: QG56 (human lung cancer cells); test: MTT method, activity on QG56 cells (Table 2-1); type: cell-based; conditions: QG-56, 72 h
Procedure: as §2, §3

topoisomerase I = biological target: T1, topoisomerase I (Mus musculus, UniProt Q04750); test: Topoisomerase I assay, relaxation of supercoiled SV40 DNA; type: biochemical, p388 mouse leukemia
T1 construct: Topoisomerase I was prepared from p388 mouse leukemia; endogenous in cells; host or cells: P388 mouse leukemia
T1 sequence (Q04750 1-767): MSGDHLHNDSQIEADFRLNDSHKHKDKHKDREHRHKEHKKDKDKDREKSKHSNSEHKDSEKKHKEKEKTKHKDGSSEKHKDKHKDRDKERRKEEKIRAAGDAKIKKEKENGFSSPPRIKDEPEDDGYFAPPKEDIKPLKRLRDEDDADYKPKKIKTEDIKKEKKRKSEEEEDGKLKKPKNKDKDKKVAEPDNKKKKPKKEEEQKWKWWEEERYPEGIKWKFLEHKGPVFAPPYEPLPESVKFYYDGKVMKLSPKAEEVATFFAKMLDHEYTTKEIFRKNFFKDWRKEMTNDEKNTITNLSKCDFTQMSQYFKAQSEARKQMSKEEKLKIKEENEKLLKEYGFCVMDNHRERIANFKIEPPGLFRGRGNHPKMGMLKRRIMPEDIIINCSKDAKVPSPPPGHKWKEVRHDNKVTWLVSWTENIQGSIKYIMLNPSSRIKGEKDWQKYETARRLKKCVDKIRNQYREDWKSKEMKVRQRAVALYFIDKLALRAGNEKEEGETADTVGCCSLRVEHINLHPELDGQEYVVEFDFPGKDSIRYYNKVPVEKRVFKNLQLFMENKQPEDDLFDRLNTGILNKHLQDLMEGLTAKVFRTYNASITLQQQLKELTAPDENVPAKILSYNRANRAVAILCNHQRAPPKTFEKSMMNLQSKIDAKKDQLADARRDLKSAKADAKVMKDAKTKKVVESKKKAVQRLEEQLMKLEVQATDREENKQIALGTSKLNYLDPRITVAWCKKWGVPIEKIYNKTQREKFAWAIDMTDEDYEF
Procedure: Topoisomerase I was prepared from p388 mouse leukemia. One unit (the minimum amount of full relaxation of 0.5 μg SV40 DNA) of topoisomerase I,
0.5 μl of the test compounds, and 0.5 μg of SV40 DNA were added sequentially to the reaction buffer. The reaction mixture (50 μl) was incubated for 10 min and 37° C. and analyzed by electrophoresis, the gel was stained with 0.05% ethydium bromide and photographed with UV light. The DNA was quantified using a densitometor. The inhibition rate of the topoisomerase activity was calculated as [formula] where Frt and Frc are ratios of relaxed DNA to total DNA treated with topoisomerase in the presence and absence of the test drug, respectively. Fr is the proportion of relaxed DNA in untreated DNA. The IC50 of each test drug was estimated from the dose-response.

[6] = system: MKN 28 (human stomach cancer cells); test: MTT method, activity on MKN28 cells (Table 2-1); type: cell-based; conditions: MKN-28, 72 h
Procedure: as §2, §3

[7] = 72 h, p388 (Mouse leukemia), MTT, 3 days incubation
[8] = QG90 (Lung), MTT, 3 days incubation
[9] = 72 h, HOC-21 (Ovary), MTT, 3 days incubation
[10] = MKN28 (Stomach), MTT, 3 days incubation
[11] = MCF-7 (Breast), MTT, 3 days incubation

CC[C@@]1(O)C(=O)OCc2c1cc1n(c2=O)Cc2c-1nc1cccc3c1c2C(N)CC3.Cl (single isomer, unassigned) [Example 2 (Isomer A)]
IC50 ([1]; hydrochloride): 3.38 ng/mL

CC[C@@]1(O)C(=O)OCc2c1cc1n(c2=O)Cc2c-1nc1cccc3c1c2C(N)CC3.Cl (single isomer, unassigned) [Example 2 (Isomer B)]
IC50 ([1]; hydrochloride): 12.40 ng/mL

CC[C@@]1(O)C(=O)OCc2c1cc1n(c2=O)Cc2c-1nc1ccc(OC)c3c1c2C(N)CC3.Cl (single isomer, unassigned) [Example 4 (Isomer A)]
IC50 ([1]; hydrochloride): 9.21 ng/mL

CC[C@@]1(O)C(=O)OCc2c1cc1n(c2=O)Cc2c-1nc1ccc(OC)c3c1c2C(N)CC3.Cl (single isomer, unassigned) [Example 4 (Isomer B)]
IC50 ([1]; hydrochloride): 27.80 ng/mL

CC[C@@]1(O)C(=O)OCc2c1cc1n(c2=O)Cc2c-1nc1ccc(OC)c3c1c2CCC3N.Cl (single isomer, unassigned) [Example 7 (Isomer A)]
IC50 ([1]; Mus musculus, P388, 72 h, read-out: IC50): 11.4 ng/mL

CC[C@@]1(O)C(=O)OCc2c1cc1n(c2=O)Cc2c-1nc1ccc(OC)c3c1c2CCC3N.Cl (single isomer, unassigned) [Example 7 (Isomer B)]
IC50 ([1]; hydrochloride): 11.90 ng/mL

CCc1c2c(nc3ccc(OC(=O)N4CCC(N5CCCCC5)CC4)cc13)-c1cc3c(c(=O)n1C2)COC(=O)[C@]3(O)CC [CPT-11, irinotecan]
IC50 (p388 (Mouse leukemia); [7]): 2850 ng/mL (≈ 4.86 µM)
IC50 (QG90 (Lung); [8]): 1550 ng/mL (≈ 2.65 µM)
IC50 (HOC-21 (Ovary); [9]): 15100 ng/mL (≈ 25.7 µM)
LD10 (Acute toxicity in mice): 198 mg/m^2
LD50 (Acute toxicity in mice): 270 mg/m^2
IC50 (MKN28 (Stomach); [10]): 8690 ng/mL (≈ 14.8 µM)
IC50 ([2]; mean of the 5 cell lines): 5870 ng/mL (≈ 10 µM)
Death Nos. (Meth A fibrosarcoma; total dose 25 mg/kg): 0/6
Tumor cell anti-proliferative activity (Meth A fibrosarcoma; total dose 25 mg/kg): 31.4%
Death Nos. (Meth A fibrosarcoma; total dose 50 mg/kg): 0/6
Tumor cell anti-proliferative activity (Meth A fibrosarcoma; total dose 50 mg/kg): 53.3%
Death Nos. (Meth A fibrosarcoma; total dose 100 mg/kg): 0/6
Tumor cell anti-proliferative activity (Meth A fibrosarcoma; total dose 100 mg/kg): 62.3%
Death Nos. (Meth A fibrosarcoma; total dose 200 mg/kg): 0/6
Tumor cell anti-proliferative activity (Meth A fibrosarcoma; total dose 200 mg/kg): 79.4%
IC50 (MCF-7 (Breast); [11]): 1200 ng/mL (≈ 2.04 µM)

CC[C@@]1(O)C(=O)OCc2c1cc1n(c2=O)Cc2c-1nc1cc(F)c(C)c3c1c2C(N)CC3.Cl (stereo partly drawn) [DX-8951, (9S)-1-amino-9-ethyl-5-fluoro-2,3-dihydro-9-hydroxy-4-methyl-1H,12H-benzo[de]pyrano[3',4':6,7]indolizino[1,2-b]quinoline-10,13(9H,15H)-dione hydrochloride]
IC50 (p388 (Mouse leukemia); Mus musculus, P388, 72 h): 1.06 ng/mL
IC50 (QG90 (Lung)): 0.66 ng/mL
IC50 ([3]; P388, 72 h): 0.58 ng/mL
IC50 [4]: 12.8 ng/mL
IC50 [5]: 0.67 ng/mL
IC50 (HOC-21 (Ovary); HOC-21, 72 h): 3.67 ng/mL
LD10 (Acute toxicity in mice): 228 mg/m^2
LD50 (Acute toxicity in mice): 270 mg/m^2
IC50 (MKN28 (Stomach)): 1.75 ng/mL
IC50 [2]: 1.46 ng/mL
Death Nos. (Meth A fibrosarcoma; total dose 1.875 mg/kg): 0/6
Tumor cell anti-proliferative activity (Meth A fibrosarcoma; total dose 1.875 mg/kg): 72.5%
Death Nos. (Meth A fibrosarcoma; total dose 3.75 mg/kg): 0/6
Tumor cell anti-proliferative activity (Meth A fibrosarcoma; total dose 3.75 mg/kg): 78.3%
Death Nos. (Meth A fibrosarcoma; total dose 7.5 mg/kg): 0/6
Tumor cell anti-proliferative activity (Meth A fibrosarcoma; total dose 7.5 mg/kg): 87.5%
Death Nos. (Meth A fibrosarcoma; total dose 15 mg/kg): 0/6
Tumor cell anti-proliferative activity (Meth A fibrosarcoma; total dose 15 mg/kg): 96.6%
Death Nos. (Meth A fibrosarcoma; total dose 30 mg/kg): 2/6
Tumor cell anti-proliferative activity (Meth A fibrosarcoma; total dose 30 mg/kg): 96.4%
IC50 (MCF-7 (Breast)): 0.16 ng/mL
IC50 (topoisomerase I): 1120 nM
IC50 [6]: 9.4 ng/mL

CCc1c2c(nc3ccc(O)cc13)-c1cc3c(c(=O)n1C2)COC(=O)[C@]3(O)CC [SN-38, 7Ethyl-10-hydroxycamptothecin]
IC50 (p388 (Mouse leukemia); [7]): 3.22 ng/mL (≈ 0.00821 µM)
IC50 (QG90 (Lung); [8]): 1.43 ng/mL (≈ 0.00364 µM)
IC50 ([3]; 72 h, p388, MTT, 3 days, read-out: IC50): 1.33 ng/mL (≈ 0.00339 µM)
IC50 ([4]; HOC21, MTT, 3 days, read-out: IC50): 53.2 ng/mL (≈ 0.136 µM)
IC50 ([5]; QG56, MTT, 3 days, read-out: IC50): 2.46 ng/mL (≈ 0.00627 µM)
IC50 (HOC-21 (Ovary); [9]): 21.4 ng/mL (≈ 0.0544 µM)
IC50 (MKN28 (Stomach); [10]): 21.7 ng/mL (≈ 0.0552 µM)
IC50 ([2]; mean of the 5 cell lines): 9.63 ng/mL (≈ 0.0245 µM)
IC50 (MCF-7 (Breast); [11]): 0.49 ng/mL (≈ 0.00125 µM)
IC50 (topoisomerase I; SV40 DNA, 10 min, 37° C., read-out: Inhibition of topoisomerase I-induced relaxation of supercoiled DNA (IC50) (converted)): 3570 nM
IC50 ([6]; MKN28, MTT, 3 days, read-out: IC50): 61 ng/mL (≈ 0.155 µM)
